Results as given in publication PMC6384562, “Isolation of Two New Compounds and Other Constituents from Leaves of Piper crocatum and Study of Their Soluble Epoxide Hydrolase Activities” (Molecules, 2019).

Target: T1, soluble epoxide hydrolase (sEH) (Homo sapiens, UniProt P34913)
T1 construct: gene EPHX2
T1 sequence (P34913 1-555): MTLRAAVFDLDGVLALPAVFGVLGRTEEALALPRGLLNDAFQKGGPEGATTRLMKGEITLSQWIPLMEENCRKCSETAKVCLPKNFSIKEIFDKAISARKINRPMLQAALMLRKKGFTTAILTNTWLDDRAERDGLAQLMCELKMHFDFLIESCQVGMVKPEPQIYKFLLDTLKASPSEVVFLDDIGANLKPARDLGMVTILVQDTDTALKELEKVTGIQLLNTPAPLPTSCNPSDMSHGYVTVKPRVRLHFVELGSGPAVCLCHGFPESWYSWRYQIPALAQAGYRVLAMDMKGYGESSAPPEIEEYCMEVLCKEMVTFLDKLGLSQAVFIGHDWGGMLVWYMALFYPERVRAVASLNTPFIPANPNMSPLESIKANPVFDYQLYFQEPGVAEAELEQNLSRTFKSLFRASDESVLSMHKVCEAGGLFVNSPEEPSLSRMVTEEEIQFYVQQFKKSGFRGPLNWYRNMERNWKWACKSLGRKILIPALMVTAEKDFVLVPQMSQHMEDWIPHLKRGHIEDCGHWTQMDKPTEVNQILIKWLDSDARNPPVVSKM
Assay: fluorescence assay with recombinant human sEH and PHOME substrate
Assay type: biochemical

IC50: 58.5 ± 0.5 µM
SMILES: C=CCc1cc(OC)c(O[C@@H]2O[C@H](CO)[C@@H](O)[C@H](O)[C@H]2O)c(OC)c1 [compound 5, erigeside II]
